The record followed here is US20210395262A1, “INHIBITORS OF HUMAN IMMUNODEFICIENCY VIRUS REPLICATION” (ViiV HEALTHCARE UK (NO.5) LIMITED, priority 2018, published 2021).

Data set [1] is described as follows: Compound cytotoxicity, XTT-based colorimetric assay. The format is cell-based. As to conditions: human; uninfected MT2 cells, day 4, XTT; read-out: CC50. The procedure, abridged: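 Run under the antiviral-assay protocol but without virus. Viability was read on day 4 and CC50 values were derived from the readout.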
(Formazan colour is commonly taken as a measure of viable cells.)

The test system of a further data set is recombinant NL4-3 virus. The data set can be described thus: HIV cell culture assay (antiviral activity, luciferase readout in MT-2 cells). As to conditions: Human immunodeficiency virus 1, NL43, MT2. In kind it is cell-based. The procedure, abridged: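 MT-2 cells infected for 4-5 days with NL4-3 reference virus carrying Renilla luciferase in place of part of nef, in presence of serial compound dilutions. Luciferase activity read with live-cell substrate. EC50 derived from median effect equation, slope parameter m.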

Turning to `C[C@@H]1CN(c2ccc3c(=O)n(-c4ccc(Cl)c5c(NS(=O)(=O)C6CC6)nn(CC(F)F)c45)c([C@H](Cc4cc(F)cc(F)c4)NC(=O)Cn4nc(C(F)F)cc4C(F)F)nc3c2)C[C@H](C)O1` (atropisomer, axis not shown; (P)) [Example 38, 2-(3,5-bis(difluoromethyl)-1H-pyrazol-1-yl)-N—((S)-1-((3P)-3-(4-chloro-3-(cyclopropanesulfonamido)-1-(2,2-difluoroethyl)-1H-indazol-7-yl)-7-((2S,6R)-2,6-dimethylmorpholino)-4-oxo-3,4-dihydroquinazolin-2-yl)-2-(3,5-difluorophenyl)ethyl)acetamide], in data set [1], the CC50 at 4 days was above 1000 nM. For the same compound, in the data set on recombinant NL4-3 virus, the EC50 came to 1.22 nM.

`O=C(Cn1nc(C(F)F)cc1C1CC1)N[C@@H](Cc1cc(F)cc(F)c1)c1nc2cc(N3CCCCC3)ccc2c(=O)n1-c1ccc(Cl)c2c(NS(=O)(=O)C3CC3)nn(CC(F)F)c12` (atropisomer, axis not shown; (P)) [Example 39, (S)—N-(1-((3P)-3-(4-chloro-3-(cyclopropanesulfonamido)-1-(2,2-difluoroethyl)-1H-indazol-7-yl)-4-oxo-7-(piperidin-1-yl)-3,4-dihydroquinazolin-2-yl)-2-(3,5-difluorophenyl)ethyl)-2-(5-cyclopropyl-3-(difluoromethyl)-1H-pyrazol-1-yl)acetamide]: the CC50 at 4 days in data set [1] is above 1000 nM. In the data set with recombinant NL4-3 virus, the EC50 is 3.72 nM.

As for `O=C(Cn1nc(C(F)F)cc1C1CC1)N[C@@H](Cc1cc(F)cc(F)c1)c1nc2cc(N3CCOCC3)ccc2c(=O)n1-c1ccc(Cl)c2c(NS(=O)(=O)C3CC3)nn(CC(F)F)c12` (atropisomer, axis not shown; (P)) [Example 40, (S)—N-(1-((3P)-3-(4-chloro-3-(cyclopropanesulfonamido)-1-(2,2-difluoroethyl)-1H-indazol-7-yl)-7-morpholino-4-oxo-3,4-dihydroquinazolin-2-yl)-2-(3,5-difluorophenyl)ethyl)-2-(5-cyclopropyl-3-(difluoromethyl)-1H-pyrazol-1-yl)acetamide], the CC50 at 4 days in data set [1] was above 1000 nM. For the same compound, in the data set on recombinant NL4-3 virus, the EC50 came out at 0.361 nM.

`Cn1nc(NS(C)(=O)=O)c2c(Cl)ccc(-n3c([C@H](Cc4cc(F)cc(F)c4)NC(=O)Cn4nc(C(F)F)c5c4C(F)(F)[C@@H]4C[C@H]54)nc4cc(NCC(F)F)ccc4c3=O)c21` (atropisomer, axis not shown; (P)) [Example 41, N—((S)-1-((3P)-3-(4-chloro-1-methyl-3-(methylsulfonamido)-1H-indazol-7-yl)-7-((2,2-difluoroethyl)amino)-4-oxo-3,4-dihydroquinazolin-2-yl)-2-(3,5-difluorophenyl)ethyl)-2-((3bS,4aR)-3-(difluoromethyl)-5,5-difluoro-3b,4,4a,5-tetrahydro-1H-cyclopropa[3,4]cyclopenta[1,2-c]pyrazol-1-yl)acetamide]: the CC50 at 4 days in data set [1] was above 1000 nM. In addition, the EC50 in the data set with recombinant NL4-3 virus was determined as 0.174 nM.

As for `Cn1nc(NS(C)(=O)=O)c2c(Cl)ccc(-n3c([C@H](Cc4cc(F)cc(F)c4)NC(=O)Cn4nc(C(F)F)c5c4C(F)(F)[C@@H]4C[C@H]54)nc4cc(NCC(F)(F)F)ccc4c3=O)c21` (atropisomer, axis not shown; (P)) [Example 42, N—((S)-1-((3P)-3-(4-chloro-1-methyl-3-(methylsulfonamido)-1H-indazol-7-yl)-4-oxo-7-((2,2,2-trifluoroethyl)amino)-3,4-dihydroquinazolin-2-yl)-2-(3,5-difluorophenyl)ethyl)-2-((3bS,4aR)-3-(difluoromethyl)-5,5-difluoro-3b,4,4a,5-tetrahydro-1H-cyclopropa[3,4]cyclopenta[1,2-c]pyrazol-1-yl)acetamide], in data set [1], the CC50 at 4 days is above 1000 nM. Also, the EC50 in the data set on recombinant NL4-3 virus is 0.11 nM.

With `C[C@@H]1CN(c2ccc3c(=O)n(-c4ccc(Cl)c5c(NS(C)(=O)=O)nn(CC(F)F)c45)c([C@H](Cc4cc(F)cc(F)c4)NC(=O)Cn4nc(C(F)(F)F)c5ccccc54)nc3c2)C[C@H](C)O1` (atropisomer, axis not shown; (P)) [Example 43, N—((S)-1-((3P)-3-(4-chloro-1-(2,2-difluoroethyl)-3-(methylsulfonamido)-1H-indazol-7-yl)-7-((2S,6R)-2,6-dimethylmorpholino)-4-oxo-3,4-dihydroquinazolin-2-yl)-2-(3,5-difluorophenyl)ethyl)-2-(3-(trifluoromethyl)-1H-indazol-1-yl)acetamide], the CC50 at 4 days in data set [1] is above 500 nM. The EC50 with recombinant NL4-3 virus was 1.2 nM.

Consider `C[C@@H]1CN(c2ccc3c(=O)n(-c4ccc(Cl)c5c(NS(C)(=O)=O)nn(CC(F)F)c45)c([C@H](Cc4cc(F)cc(F)c4)NC(=O)Cn4nc(C5CC5)c5ccccc54)nc3c2)C[C@H](C)O1` (atropisomer, axis not shown; (P)) [Example 44, N—((S)-1-((3P)-3-(4-chloro-1-(2,2-difluoroethyl)-3-(methylsulfonamido)-1H-indazol-7-yl)-7-((2S,6R)-2,6-dimethylmorpholino)-4-oxo-3,4-dihydroquinazolin-2-yl)-2-(3,5-difluorophenyl)ethyl)-2-(3-cyclopropyl-1H-indazol-1-yl)acetamide], for which, in data set [1], the CC50 at 4 days was above 500 nM. Besides, in the data set on recombinant NL4-3 virus, the EC50 was determined as 0.59 nM.

Take `C[C@@H]1CN(c2ccc3c(=O)n(-c4ccc(Cl)c5c(NS(C)(=O)=O)nn(CC(F)F)c45)c([C@H](Cc4cc(F)cc(F)c4)NC(=O)Cn4nc(C(F)(F)F)c5c4C(F)(F)[C@@H]4C[C@H]54)nc3c2)C[C@H](C)O1` (atropisomer, axis not shown; (P)) [Example 45, N—((S)-1-((3P)-3-(4-chloro-1-(2,2-difluoroethyl)-3-(methylsulfonamido)-1H-indazol-7-yl)-7-((2S,6R)-2,6-dimethylmorpholino)-4-oxo-3,4-dihydroquinazolin-2-yl)-2-(3,5-difluorophenyl)ethyl)-2-((3bS,4aR)-5,5-difluoro-3-(trifluoromethyl)-3b,4,4a,5-tetrahydro-1H-cyclopropa[3,4]cyclopenta[1,2-c]pyrazol-1-yl)acetamide]: the CC50 at 4 days in data set [1] was above 500 nM. In addition, in the data set on recombinant NL4-3 virus, the concentration for a half-maximal effect (EC50) is 0.1 nM.

For `C[C@@H]1CN(c2ccc3c(=O)n(-c4ccc(Cl)c5c(NS(C)(=O)=O)nn(CC(F)F)c45)c([C@H](Cc4cc(F)cc(F)c4)NC(=O)Cn4nc(C5CC5)cc4C(F)F)nc3c2)C[C@H](C)O1` (atropisomer, axis not shown; (P)) [Example 47, N—((S)-1-((3P)-3-(4-chloro-1-(2,2-difluoroethyl)-3-(methylsulfonamido)-1H-indazol-7-yl)-7-((2S,6R)-2,6-dimethylmorpholino)-4-oxo-3,4-dihydroquinazolin-2-yl)-2-(3,5-difluorophenyl)ethyl)-2-(3-cyclopropyl-5-(difluoromethyl)-1H-pyrazol-1-yl)acetamide], in data set [1], the CC50 at 4 days was above 500 nM. The EC50 in the data set with recombinant NL4-3 virus is 0.96 nM.

`C[C@@H]1CN(c2ccc3c(=O)n(-c4ccc(Cl)c5c(NS(C)(=O)=O)nn(CC(F)F)c45)c([C@H](Cc4cc(F)cc(F)c4)NC(=O)Cn4ccc(C5CC5)n4)nc3c2)C[C@H](C)O1` (atropisomer, axis not shown; (P)) [Example 48, N—((S)-1-((3P)-3-(4-chloro-1-(2,2-difluoroethyl)-3-(methylsulfonamido)-1H-indazol-7-yl)-7-((2S,6R)-2,6-dimethylmorpholino)-4-oxo-3,4-dihydroquinazolin-2-yl)-2-(3,5-difluorophenyl)ethyl)-2-(3-cyclopropyl-1H-pyrazol-1-yl)acetamide]: in data set [1], the CC50 at 4 days was above 500 nM. Also, the EC50 in the data set on recombinant NL4-3 virus worked out at 0.44 nM.

With `C[C@@H]1CN(c2ccc3c(=O)n(-c4ccc(Cl)c5c(NS(C)(=O)=O)nn(CC(F)F)c45)c([C@H](Cc4cc(F)cc(F)c4)NC(=O)Cn4ccc(C(C)(C)C)n4)nc3c2)C[C@H](C)O1` (atropisomer, axis not shown; (P)) [Example 49, 2-(3-(tert-butyl)-1H-pyrazol-1-yl)-N—((S)-1-((3P)-3-(4-chloro-1-(2,2-difluoroethyl)-3-(methylsulfonamido)-1H-indazol-7-yl)-7-((2S,6R)-2,6-dimethylmorpholino)-4-oxo-3,4-dihydroquinazolin-2-yl)-2-(3,5-difluorophenyl)ethyl)acetamide], the CC50 at 4 days in data set [1] is above 500 nM. For the same compound, the EC50 in the data set with recombinant NL4-3 virus amounted to 2.7 nM.

In the case of `C[C@@H]1CN(c2ccc3c(=O)n(-c4ccc(Cl)c5c(NS(C)(=O)=O)nn(CC(F)F)c45)c([C@H](Cc4cc(F)cc(F)c4)NC(=O)Cn4ccc(C5CCC5)n4)nc3c2)C[C@H](C)O1` (atropisomer, axis not shown; (P)) [Example 50, N—((S)-1-((3P)-3-(4-chloro-1-(2,2-difluoroethyl)-3-(methylsulfonamido)-1H-indazol-7-yl)-7-((2S,6R)-2,6-dimethylmorpholino)-4-oxo-3,4-dihydroquinazolin-2-yl)-2-(3,5-difluorophenyl)ethyl)-2-(3-cyclobutyl-1H-pyrazol-1-yl)acetamide], the CC50 at 4 days in data set [1] is above 500 nM. The EC50 with recombinant NL4-3 virus is 0.91 nM.

Turning to `C[C@@H]1CN(c2ccc3c(=O)n(-c4ccc(Cl)c5c(NS(C)(=O)=O)nn(C)c45)c([C@H](Cc4cc(F)cc(F)c4)NC(=O)Cc4cn(C5CC5)c5ccccc45)nc3c2)C[C@H](C)O1` (atropisomer, axis not shown; (P)) [Example 53, N—((S)-1-((3P)-3-(4-chloro-1-methyl-3-(methylsulfonamido)-1H-indazol-7-yl)-7-((2S,6R)-2,6-dimethylmorpholino)-4-oxo-3,4-dihydroquinazolin-2-yl)-2-(3,5-difluorophenyl)ethyl)-2-(1-cyclopropyl-1H-indol-3-yl)acetamide], the CC50 at 4 days in data set [1] is above 500 nM. The EC50 in the data set with recombinant NL4-3 virus turned out to be 0.81 nM.

As a reminder, the CC50 is the concentration giving 50% cytotoxicity. In general, EC50 refers to the concentration needed to bring the measured effect to its halfway point.
